# Where “and” joins values, the source holds several entries; their conditions need not be identical. Equal values may be shown once.
# What was measured:
# [1] = system: IL-6; test: Cytokine production by LPS/γIFN-stimulated human PBMC: IL-6; assay type: cell-based; details: γIFN+LPS, 18 hr
# Description: Similar results concerning a variety of cytokines in addition to TNF, e.g., IL-6 and Macrophage Inflammatory Proteins-1α and -1β (MIP-1α and MIP-1β) were obtained using human peripheral blood as a source of monocytes. Human peripheral blood mononuclear cells (PBMC) were isolated using “FICOLL®”-based methods and plated in standard 6-well culture plates at a concentration of 10^6/well and allowed to adhere for from 2 hr to overnight whereupon non-adherent cells were washed out and the medium was then replaced with medium containing the compound to be tested. One hour later, the medium was supplemented so as to contain 25 U/ml γIFN and 0.1 μg/ml LPS and the cultures incubated a further 18 hr. The medium was then collected, and cell debris removed by centrifugation. This conditioned supernatant was then assayed for the presence of cytokines using the standard methodologies of L929 cell cytotoxicity bioassay and immunoassay (ELISA).
# [2] = system: C3H/HeN mice; test: Carrageenan-induced paw swelling; assay type: in vivo
# Experimental: Paw edema was induced by injection of 50 microliters of 1% Lambda-carrageenan in HEPES 25 mM, pH 7.4, into the planter surface of the left hindpaw of C3H/HeN mice, the right paw was injected with 50 microliters of HEPES alone. The animals were divided into two groups: controls (n=3) received vehicle only, i.p. 1.5 hour before paw injection; the experimental group […] was treated with Compound No. 14, 5 mg/Kg, i.p. 1.5 hour before paw injection. Three hours after paw injection, paw thickness was measured using a caliper, and the data expressed as change of carrageenan paw vs HEPES paw thickness.
# The results are summarized in Table V which contains the carrageenan-induced increase in paw thickness in mm of three control and three Compound No. 14 treated mice. The inhibition can also be reported as percent inhibition of swelling as defined by the standard formula: Percent inhibition=(1−(treated/control))×100. Calculation of this parameter for treated animals in which Compound No. 14 suppressed swelling yields a 70% inhibition.
smiles,measurement,setting,value
"CC(=NNC(=N)N)c1cc(NC(=O)CCCCCCCCC(=O)Nc2cc(C(C)=NNC(=N)N)cc(C(C)=NNC(=N)N)c2)cc(C(C)=NNC(=N)N)c1.Cl.Cl.Cl.Cl [Compound 14, N,N′-bis(3,5-diacetyl-phenyl)decanediamide tetrakis(amidinohydrazone) tetrahydrochloride]",concentration that effectively inhibited production of IL-6,[1],10 to 20 µM
same,CHANGE IN PAW THICKNESS (carrageenan paw vs HEPES paw),"[2]; 5 mg/Kg i.p. 1.5 hour before paw injection, three hours after, individual mice",0.54 mm and 0.41 mm and 0.4 mm
same,Percent inhibition of swelling,"[2]; 5 mg/Kg i.p., (1−(treated/control))×100",70%

# — US20020028851A1, “Guanylhydrazones and their use to treat inflammatory conditions” (priority 1994, published 2002)
